Source: publication PMC6253875, “Synthesis and Evaluation of Non-peptidic Cysteine Protease Inhibitors of P. falciparum Derived from Etacrynic Acid” (Molecules, 2008)
Where two headings read alike, the source gives them in different places.

What was measured:
P. falciparum strain W2 = assay: Antiplasmodial activity in vitro, parasite development quantified by flow cytometry; assay type: cell-based, Plasmodium falciparum; details: W2 strain (CQ-resistant), ni = no inhibition; for IC50: read-out: P. f. 3D7/W2, IC50
Description: (§1) IC50 values for inhibition of falcipain-2 and falcipain-3 were determined as described previously using the fluorogenic substrates Cbz-Phe-Arg-AMC and Cbz-Leu-Arg-AMC, respectively (AMC, 7-amino-4 methylcoumarin). As a positive control the well-known cysteine protease inhibitor E-64 [7, 25, 26] and as a negative control the solvent (DMSO) was used. Dose-dependent effects of compounds on parasite development (P. falciparum strain W2) were quantified by flow cytometry according to a previously published method. First, a screening with inhibitor concentrations of […] was performed and the percentage activity of infected red blood cells (RBCs) relative to the negative control was determined. […] Chloroquine and E-64 were used as positive controls, and the solvent DMSO was used as a negative control. For selected compounds assays with the P. falciparum strain 3D7 were performed using a fluorometric assay with Hoechst-33258 [28], or the microculture tetrazolium test measuring parasite lactate dehydrogenase activity. The parasites were cultivated in vitro as described previously. Compounds were screened at concentrations between 1 nM and 100 μM. Synchronized ring stages were plated in 96-well plates at a parasitemia of 1%, in the presence of the compounds (dissolved in DMSO). Incubation of parasites with DMSO alone at a concentration of 0.5% v/v was used as a negative control. IC50 values were calculated by non-linear regression analyses using the programs GaphPad® Prism 4 and GraFit® [31, 32].

falcipain-3 = target: T1, falcipain-3 (Plasmodium falciparum, UniProt Q8IIL0); assay: Inhibition of recombinant falcipain-3, fluorometric microplate assay (Cbz-Leu-Arg-AMC); assay type: biochemical
T1 construct: made in house; host or cells: E. coli
T1 sequence (Q8IIL0 243-492): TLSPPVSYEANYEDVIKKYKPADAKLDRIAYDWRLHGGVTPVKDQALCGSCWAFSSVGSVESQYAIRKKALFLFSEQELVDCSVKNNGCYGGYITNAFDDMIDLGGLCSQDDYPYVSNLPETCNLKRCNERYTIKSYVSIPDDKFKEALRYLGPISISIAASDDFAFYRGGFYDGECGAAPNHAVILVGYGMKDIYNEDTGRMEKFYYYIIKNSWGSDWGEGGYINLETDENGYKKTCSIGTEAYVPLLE
Description: (§2) Recombinant falcipain-2 and falcipain-3 were produced as previously described. Inhibitory activities against recombinant falcipain-2 and falcipain-3 were evaluated in fluorometric microplate assays using the substrates Cbz-Phe-Arg-AMC and Cbz-Leu-Arg-AMC (AMC, 7-amino-4-methyl-coumarin). The cysteine protease inhibitor E-64 was used as a positive control. The solvent DMSO was used as negative control. […] The in vitro data for the etacrynic acid derivatives are compared to those of the well known drug chloroquine and to E-64.
(§3) Falcipain-2 and falcipain-3 were recombinantly expressed in E. coli and refolded to active enzyme as previously described.
as §1

falcipain-2 = target: T2, falcipain-2 (Plasmodium falciparum, UniProt Q8I6U4); assay: Inhibition of recombinant falcipain-2, fluorometric microplate assay (Cbz-Phe-Arg-AMC); assay type: biochemical
T2 construct: made in house; host or cells: E. coli
T2 sequence (Q8I6U4 244-484): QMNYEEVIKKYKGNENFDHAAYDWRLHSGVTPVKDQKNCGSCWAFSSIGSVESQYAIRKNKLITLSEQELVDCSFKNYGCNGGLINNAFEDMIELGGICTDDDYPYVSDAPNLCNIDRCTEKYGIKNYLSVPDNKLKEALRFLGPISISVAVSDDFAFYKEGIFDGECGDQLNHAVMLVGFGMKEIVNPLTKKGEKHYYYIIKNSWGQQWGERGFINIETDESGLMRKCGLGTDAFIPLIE
Description: as §2, §3, §1

P. falciparum strain 3D7 = assay: Antiplasmodial activity in vitro, Hoechst-33258 fluorometric assay or parasite lactate dehydrogenase test; assay type: cell-based; details: Plasmodium falciparum; 3D7 strain (CQ-sensitive); read-out: P. f. 3D7/W2, IC50
Description: as §2, §1

[1] = In vitro cytotoxicity assay; assay type: cell-based; details: human, 293T human kidney epithelium cells; 293T cells
Description: Recombinant falcipain-2 and falcipain-3 were produced as previously described. […] The cysteine protease inhibitor E-64 was used as a positive control. The solvent DMSO was used as negative control. […] For the experimental procedures, cells were detached from the flasks with a rubber policeman, washed twice with PBS (phosphate-buffer saline) containing 1 mL trypsin-EDTA (1 x), and suspended at 2 x 10^6 cells mL^-1 in complete medium. Inhibitor assays were carried out as described elsewhere except that the cell concentration used in this study was 2 x 10^4 mL^-1 well^-1 [33].

[2] = recombinant falcipain-3, ni = no inhibition, read-out: FP-3 IC50
[3] = recombinant falcipain-2, values marked ^a: only one experiment, ni = no inhibition, read-out: FP-2 IC50
[4] = recombinant falcipain-2, values marked ^a: only one experiment, ni = no inhibition
[5] = recombinant falcipain-3, ni = no inhibition
[6] = Plasmodium falciparum, 3D7 / W2

| SMILES | P. f. 3D7/W2, IC50 (P. falciparum strain W2) | IC50 (falcipain-3; [2]) | IC50 (falcipain-2; [3]) | further results |
| --- | --- | --- | --- | --- |
| C=C(CC)C(=O)c1ccc(OCC(=O)OCC)c(Cl)c1 [Compound 1] | ni^c | 346 ± 14 µM | 498 ± 8 µM | – |
| C=C(CC)C(=O)c1ccc(Cl)cc1OCC(=O)OCC [Compound 2] | ni^c | 381 ± 21 µM | 110 ± 5 µM | – |
| C=C(CC)C(=O)c1ccc(OCC(=O)OC(C)(C)C)c(F)c1 [Compound 3, Tert-butyl 2-(2-fluoro-4-(2-methylenebutanoyl)phenoxy)acetate] | – | – | – | IC50 (P. falciparum strain 3D7): 142 ± 5 µM; FP-2 IC50 (falcipain-2; [4]): ni |
| C=C(CC)C(=O)c1ccc(OCC(=O)O)c(F)c1 [Compound 4, 2-(2-fluoro-4-(2-methylenebutanoyl)phenoxy)acetic acid] | – | – | – | IC50 (P. falciparum strain 3D7): 79.8 ± 6 µM |
| C=C(CC)C(=O)c1ccc(OCC(=O)NC(C)(C)C)c(F)c1 [Compound 5, N-tert-butyl-2-(2-fluoro-4-(2-methylenebutanoyl)phenoxy)acetamide] | – | – | 80 ± 5 µM | IC50 (P. falciparum strain 3D7): 205 ± 9 µM |
| C=C(CC)C(=O)c1ccc(OCC(=O)NCCCC)c(F)c1 [Compound 6, N-butyl-2-(2-fluoro-4-(2-methylenebutanoyl)phenoxy)acetamide] | – | – | – | IC50 (P. falciparum strain 3D7): 141 ± 4 µM; FP-2 IC50 (falcipain-2; [4]): ni; melting point: 73 °C |
| C=C(CC)C(=O)c1ccc(OCC(=O)NC(C(=O)OC)C(C)CC)c(F)c1 (centres unmarked) [Compound 7, Methyl-2-(2-(2-fluoro-4-(2-methylenebutanoyl)phenoxy)acetamido)-3-methylpentanoate] | – | – | – | FP-2 IC50 (falcipain-2; [4]): ni |
| C=C(CC)C(=O)c1ccc(OCC(=O)O)c(Cl)c1Cl [Compound 8, etacrynic acid] | ni^c | – | 443 ± 17 µM | FP-3 IC50 (falcipain-3; [5]): ni |
| C=C(CC)C(=O)c1ccc(OCC(=O)OCC)c(Cl)c1Cl [Compound 9] | ni^c | 163 ± 5.6 µM | 60.6 ± 4.2 µM | – |
| C=C(CC)C(=O)c1ccc(OCC(=O)N[C@@H](C)C(=O)OCc2ccccc2)c(Cl)c1Cl [Compound 10] | ni^c | 56.7 ± 5.7 µM | 178 ± 14 µM | – |
| C=C(CC)C(=O)c1ccc(OCC(=O)NCc2ccccc2)c(Cl)c1Cl [Compound 11] | ni^c | 158 ± 11 µM | 333 ± 5 µM | – |
| C=C(CC)C(=O)c1ccc(OCC(=O)N[C@H](C)C(=O)OCc2ccccc2)c(Cl)c1Cl [Compound 12] | – | – | 165 ± 12 µM | – |
| C=C(CC)C(=O)c1ccc(OCC(=O)Nc2ccccc2)c(Cl)c1Cl [Compound 13] | nic | 87.2 ± 6 µM | 269 ± 21 µM | – |
| C=C(CC)C(=O)c1ccc(OCC(=O)NC(C)(C)C(N)=O)c(Cl)c1Cl [Compound 14] | – | – | 318 ± 14 µM | IC50 (P. falciparum strain W2; [6]): 29.3 ± 3.4 µM; FP-3 IC50 (falcipain-3; [5]): ni |
| C=C(CC)C(=O)c1ccc(OCC(=O)NCC(=O)N[C@@H](C)C(N)=O)c(Cl)c1Cl [Compound 15] | nic | – | 212 ± 17 µM | FP-3 IC50 (falcipain-3; [5]): ni |
| C=C(CC)C(=O)c1ccc(OCC(=O)NCC(=O)N[C@@H](Cc2ccccc2)C(N)=O)c(Cl)c1Cl [Compound 16] | nic | – | 242 ± 19 µM | FP-3 IC50 (falcipain-3; [5]): ni |
| C=C(CC)C(=O)c1ccc(OCC(=O)N2CCOCC2)c(Cl)c1Cl [Compound 17] | nic | 479 ± 23 µM | 305 ± 30 µM | – |

| SMILES | P. f. 3D7/W2, IC50 (P. falciparum strain W2) | IC50 (falcipain-3; [2]) | IC50 (falcipain-2; [3]) | further results |
| --- | --- | --- | --- | --- |
| C=C(CC)C(=O)c1ccc(OCC(=O)NC(C)(C)C)c(Cl)c1Cl [Compound 18] | nic | 153 ± 16 µM | 255 ± 4 µM | – |
| C=C(CC)C(=O)c1ccc(OCC(=O)N2CCN(CC)CC2)c(Cl)c1Cl [Compound 19] | – | – | – | IC50 (P. falciparum strain W2; [6]): 27.4 ± 4.1 µM; IC50 (falcipain-3): 557 ± 23 µM; IC50 (falcipain-2): 144 ± 11 µM |
| C=C(CC)C(=O)c1ccc(OCC(=O)NCCCC)c(Cl)c1Cl [Compound 20] | nic | 158 ± 17 µM | 184 ± 17 µM | – |
| C=C(CC)C(=O)c1ccc(OCC(=O)NCCCCCC)c(Cl)c1Cl [Compound 21] | nic | 123 ± 8 µM | 182 ± 9 µM | – |
| C=C(CC)C(=O)c1ccc(OCC(=O)NC(CCC(=O)O)C(=O)O)c(Cl)c1Cl (centres unmarked) [Compound 22, 2-{2-[2,3-Dichloro-4-(2-methylene-butyryl)-phenoxy]acetylamino}pentanedioic acid] | nic | – | – | FP-3 IC50 (falcipain-3; [5]): ni; FP-2 IC50 (falcipain-2; [4]): ni |
| C=C(CC)C(=O)c1ccc(OCC(=O)NCCCCCC(=O)O)c(Cl)c1Cl [Compound 23, 6-{2-[2,3-Dichloro-4-(2-methylene-butyryl)-phenoxy]acetylamino}-hexanoic acid] | – | 96.5 ± 0.6 µM | 57.1 ± 13 µM | IC50 (P. falciparum strain W2; [6]): 18.8 ± 0.9 µM; IC50 [1]: > 160 µM |
| C=C(CC)C(=O)c1ccc(OCC(=O)NCCCCCCNC(=O)CCCCC2SCC3NC(=O)NC32)c(Cl)c1Cl (centres unmarked) [Compound 24, 5-(2-Oxo-hexahydro-thieno[3,4-d]imidazol-4-yl)pentanoic acid (6-{2-[2,3-dichloro-4-(2-methylene-butyryl)-phenoxy]acetylamino}-hexyl)-amide] | – | 11.9 ± 1.1 µM | 3 ± 1.1 µM | IC50 (P. falciparum strain W2; [6]): 9 ± 0.4 µM |
| CCC(C)C(=O)c1ccc(OCC(=O)O)c(Cl)c1Cl (centres unmarked) [Compound 25] | ni^c | – | 531 µM | FP-3 IC50 (falcipain-3; [5]): ni |
| CCCC(=O)c1ccc(OCC(=O)NC(C)(C)C)c(Cl)c1Cl [Compound 26, N-tert-butyl-2-(4-butyryl-2,3-dichloro-phenoxy)-acetamide] | ni^c | – | 484 µM | FP-3 IC50 (falcipain-3; [5]): ni |
| CCCCNC(=O)COc1ccc(C(=O)CCC)c(Cl)c1Cl [Compound 27, N-butyl-2-(4-butyryl-2,3-dichloro-phenoxy)-acetamide] | ni^c | – | 713 µM | FP-3 IC50 (falcipain-3; [5]): ni |
| CCCC(=O)c1ccc(OCC(=O)NC(C)(C)C)c(F)c1 [Compound 28, N-tert-butyl-2-(4-butyryl-2-fluorophenoxy)acetamide] | – | – | 80 ± 6 µM | IC50 (P. falciparum strain W2; [6]): 66.4 ± 2.2 µM |
| CCCC(=O)c1ccc(OCC(=O)OC(C)(C)C)c(F)c1 [Compound 29, Tert-butyl-2-(4-butyryl-2-fluorophenoxy)acetate] | – | – | 80 ± 6 µM | – |
| CCCCNC(=O)COc1ccc(C(=O)CCC)cc1F [Compound 30, N-butyl-2-(4-butyryl-2-fluorophenoxy)acetamide] | – | – | – | FP-2 IC50 (falcipain-2; [4]): ni |
| CCCC(=O)c1ccc(OCC(=O)NC(C)(C)CO)c(F)c1 [Compound 31, 2-(4-Butyryl-2-fluorophenoxy)-N-(1-hydroxy-2-methylpropan-2-yl)acetamide] | – | – | – | FP-2 IC50 (falcipain-2; [4]): ni |
| CCCC(=O)c1ccc(OCC(=O)NC(C(=O)OC)C(C)CC)c(F)c1 (centres unmarked) [Compound 32, Methyl 2-(2-(4-butyryl-2-fluorophenoxy)acetamido)-3-methylpentanoate] | – | – | – | FP-2 IC50 (falcipain-2; [4]): ni |
| CC(C)C[C@H](NC(=O)[C@H]1O[C@@H]1C(=O)O)C(=O)NCCCCN=C(N)N [E-64, reference compound] | – | 0.075 ± 0.02 µM | 0.015 ± 0.008 µM | IC50 (P. falciparum strain W2): 5.3 ± 1.05 µM |
